Data from US5215889A, “Catalytic and reactive polypeptides and methods for their preparation and use” (The Regents of the University of California, priority 1989, dated 1993).

How the values were obtained:
[1] = molecular target: T1, MOPC315 Fab, thiolated (labeled with bromoketone 4; tyrosine 34L derivatized) (Mus musculus, UniProt P01729+P01822+P01844); experiment: Fluorescence quenching binding of substrate by thiolated Fab; set-up: species or system murine
T1 construct: made in house; host or cells: Fab by papain digestion of reduced and alkylated MOPC315 IgA (murine myeloma)
T1 sequence (P01729+P01844 fused, one chain of several): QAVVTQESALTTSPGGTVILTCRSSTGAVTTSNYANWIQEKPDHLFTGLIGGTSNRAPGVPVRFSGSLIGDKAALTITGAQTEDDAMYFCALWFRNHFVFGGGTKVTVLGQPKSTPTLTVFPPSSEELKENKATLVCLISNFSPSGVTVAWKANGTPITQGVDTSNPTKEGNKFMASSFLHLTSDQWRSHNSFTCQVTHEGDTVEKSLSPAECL
Text: The reaction kinetics are consistent with the formation of a Michaelis complex (FIG. 6). […] Neither the uncleaved affinity-labeled antibody nor the iodoacetamide-alkylated antibody accelerated the rate of the thiolysis reaction above the background rate. The stoichiometry of product release corresponded to 1.0 coumarin to 1.0 Fab-SH. […] However, the introduction of both a thiol and a general base into the label may lead to a catalytic system (Bruice (1959) J. Am. Chem. Soc. 81:5444 and Street et al. (1985) J. Am. Chem. Soc. 107:7669).

[2] = molecular target: T2, MOPC315 Fv variant Fv(Y34HL), Tyr 34L to His (Mus musculus, UniProt P01729+P01822, Y53H); experiment: Hydrolysis of DNP coumarin esters 1-3 by Fv; assay type: biochemical, murine; settings: for kcat (Table 2, Fv(Y34HL)): pH 6.8, SE (n = 3)
T2 construct: Antibody-derived VH was prepared by denaturing ion exchange chromatography of authentic MOPC315 Fv, obtained from pepsin digestion of purified IgA; lambda cII fusion with Factor Xa site (IleGluGlyArg) (N, cleaved yes); made in house; host or cells: VL: E. coli MZ1 (cII fusion, inclusion bodies); VH: pepsin-cleaved MOPC315 IgA from mouse ascites
Experimental: (§1) FIG. 22 is a Lineweaver-Burke plot of initial rate data obtained for the hydrolysis of 1 as described in Example 6 of the Experimental section herein. Four μl of a 100-fold concentrated solution of substrate 1 in DMSO was added to the 400 μl of Fv (115 nM) in buffer A while monitoring 7-hydroxycoumarin fluorescence at 25° C. (excitation:355nm; emission: 457 nm). A standard of 7-hydroxycoumarin was added at the completion of each assay to assess quenching of coumarin fluorescence by DNP at high substrate concentrations. The buffer background rate was subtracted from the initial rates. Each point represents the average velocity of at least duplicate experiments. Factor X, Factor Xa, or Russell's viper venom had no hydrolytic activity towards 1.
(§2) The ability of wild type and mutant Fvs to hydrolyze esters 1-3 was assayed by measuring the rate of coumarin release fluorimetrically at pH 6.8 (Pollack et al. (1988) supra; Pollack (1989) supra). […] Under these conditions, Fv(Y34HL) turns over at least 11 times and still retains 44% of its activity. The loss of activity is likely due to the accumulation of the inhibitory reaction product 8. […] Ester 2 was a poor substrate (kcat (2)=0.015 min^-1); and the hydrolysis of 3 was not accelerated (kcat (3)<0.005 min^-1). […] The initial rate of hydrolysis of 1 by Fv(Y34HL) at pH 6.8 is approximately 45-fold faster than the reaction with either […] (Table 2). At pH 8.7, the reactivity of Fv(Y34HL) and Fv(315) both increase, but differentially (v[Fv(Y34HL ]/v[Fv(315)]=3.3, at 10 μM 1). Under these conditions Fv(Y34HL) catalytically hydrolyzes 1 while Fv(315) reacts stoichiometrically. The increased reactivity of Fv(315) at higher pH may be due to deprotonation of the tyrosine hydroxyl and subsequent transesterification to form a relatively stable phenol ester.

[3] = tested on: antibody 15F1-3B1 (IgG, thymine dimer specific); experiment: Antibody-sensitized photocleavage of thymine dimer; assay type: biochemical, Balb/c mice
Experimental: Solutions of carboxymethylthymine dimer 1 were irradiated with 300 nm light in the presence of antibody; and dimer cleavage was assayed spectrophotometrically as follows. Deoxygenated solutions of thymine dimer (5-300 μM) and antibody (3 μM) in 100 mM NaCl, 10 mM phosphate buffer, pH 7.5 were irradiated at 18°-20° C. in a 1 mL quartz cuvette. All photolysis experiments were performed with a 1000 W high pressure Hg-Xe lamp equipped with a Photon Technologies International, Inc. Model Q5001 Quantacount electronic actinometer and a diffraction grating monochromator blazed at 500 nm. A bandpass of 3 nm was used for both kinetic and photon counting experiments. […] Monomer formation was assayed spectrophotometrically at fixed time intervals (λmax =272 nm, log ε=3.90).

[4] = molecular target: underivatized MOPC 315; experiment: Fluorescence quenching binding in PBS; set-up: species or system murine
Experimental: The hydrolysis of coumarin esters 1a-1d (FIG. 9) by the semisynthetic antibody was assayed in the presence and absence of 1 μM derivatized Fab at varying pH, at 30° C. (Morpholineethanesulfonic acid (100 mM) as used as the buffer in the range of pH 5 to 7. Sodium phosphate (100 mM) was used in the range of pH 6 to 8 and tris-HCl (100 mM) was used in the range of pH 7 to 9.) The release of free coumarin was quantitated fluorometrically, exciting at 355 nm and measuring emission at 455 nm. Antibody rates were corrected by subtracting the rate of cleavage in the absence of antibody. […] This value is almost identical to the KD (5 μM) for the binding of N-DNP-glycine to underivatized MOPC 315, (determined by fluorescence quenching in PBS). […] At pH>8, the unmodified Fab slightly accelerates the cleavage of ester 1b in a stoichiometric reaction, presumably involving modification of an amino acid side chain near the binding site. However, this reaction is not observed in the catalysis by the imidazole-derivatized antibody, where the reactive antibody side-chain is probably inaccessible. The catalytic activity of the semisynthetic antibody is destroyed by treatment with diethylpyrocarbonate, an imidazole-specific reagent. […]

[5] = molecular target: T3, MOPC315 Fab, thiolated (affinity-labeled with 2 and cleaved; free thiol at lysine 52H) (Mus musculus, UniProt P01729+P01822+P01878); experiment: Thiolysis of DNP coumarin ester by thiolated Fab; assay type: biochemical, murine
T3 construct: made in house; host or cells: Fab by papain digestion of reduced and alkylated MOPC315 IgA (murine myeloma)
T3 sequence (P01822+P01878 fused): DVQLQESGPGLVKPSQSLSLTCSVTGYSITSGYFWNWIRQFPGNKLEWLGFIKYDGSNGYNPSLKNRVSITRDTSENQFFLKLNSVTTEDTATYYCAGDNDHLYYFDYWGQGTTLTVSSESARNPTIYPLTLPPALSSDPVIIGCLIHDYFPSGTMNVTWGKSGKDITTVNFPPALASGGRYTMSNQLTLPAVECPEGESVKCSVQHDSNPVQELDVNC
T3 sequence (P01729 20-129): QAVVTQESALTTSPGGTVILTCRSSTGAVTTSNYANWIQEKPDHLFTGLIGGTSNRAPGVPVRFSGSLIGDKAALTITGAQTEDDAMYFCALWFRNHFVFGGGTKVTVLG
Experimental: Cleavage of DNP coumarin esters 14 and 15 by the thiol-containing antibodies was assayed in the presence of 0.1M NaCl, 50 mM sodium phosphate, pH 7.0, with 24 μM dithiothreitol at 10° C. The release of free coumarin was quantitated fluorometrically, exciting at 355 nm and measuring emission at 455 nm. The S-thiopyridyl Fab was first dialyzed against assay buffer, 30 min. prior to the assays, an aliquot of the thiopyridyl Fab (0.15 mg in 0.19 ml) was reduced with 3.8 mM dithiothreitol at 20° C. For each assay, reduced, thiolated Fab (15 μg in 18.8 μl) was diluted with assay buffer (2.95 ml) so that the net concentrations of thiolated Fab and of dithiothreitol were 0.1 μM and 24 μM, respectively. After equilibrating, the substrate was added (30 μl of a stock solution in acetonitrile) and the solution mixed for 10 sec. before monitoring fluorescence change. Antibody rates were corrected by subtracting the rate of cleavage in the absence of Fab.
The reaction kinetics are consistent with the formation of a Michaelis complex (FIG. 6). […] Neither the uncleaved affinity-labeled antibody nor the iodoacetamide-alkylated antibody accelerated the rate of the thiolysis reaction above the background rate. The stoichiometry of product release corresponded to 1.0 coumarin to 1.0 Fab-SH. […]

[6] = molecular target: MOPC315 Fv variant Fv(Y34FL), Tyr 34L to Phe; experiment: Fv fluorescence titration with DNP-L-lysine; assay type: binding, murine; settings: pH 6.8; ±SE
Experimental: (§3) FIG. 21 is a plot of Fv fluorescence titration with DNP-L-lysine as described in Example 6 of the Experimental section herein. Fv(315)(·),Fv(Y34FL)(Δ), or Fv(Y34HL)(o)(400 μl, 450-500 nM, ε280 nm=37,500 M^-1) in 100 mM potassium phosphate, pH 6.8 (buffer A), was titrated with solutions of 10-100 μM DNP-L-lysine (ε360 nm =17,500 M^-1) in buffer A while monitoring the protein fluorescence (excitation: 282 nm; emission: 343 nm). Fluorescence was corrected for the change in volume. Dissociation constants (KD) were determined by a modified Scatchard analysis.
(§4) The binding of ε-2,4-DNP-(L)-lysine (DNP Lys) by mutant wild type Fv proteins was assessed by titration of the intrinsic fluorescence of MOPC315 Fv (Hochman et al. (1973) supra; Hochman et al. (1977) supra), as shown in FIG. 21. […] DNP-aminoalkyl carboxylic acids of different lengths 6-9 (FIG. 16) were used to probe the location of the positively charged imidazole ring with respect to the DNP site in Fv(Y34HL) at pH 6.0.

[7] = molecular target: MOPC315 Fv variant Fv(Y34HL), Tyr 34L to His; experiment: Fv fluorescence titration with DNP-L-lysine; assay type: binding, murine; settings: pH 6.8; ±SE
Experimental: as §3, §4

[8] = molecular target: T4, MOPC315 Fv, wild type, Fv(315) (Mus musculus, UniProt P01729+P01822); experiment: Fv fluorescence titration with DNP-L-lysine; assay type: binding, murine; settings: pH 6.8; ±SE
T4 construct: The Fv fragment (26 kD) is a heterodimer consisting of two peptides, VH (14 kD) and VL (12 kD); made in house; host or cells: MOPC315 myeloma ascites (Balb/c mice), IgA cleaved with pepsin
T4 sequence (P01729 20-129, one chain of several): as the sequence (P01729 20-129) above
Experimental: as §3, §4

[9] = molecular target: T4, MOPC315 Fv, wild type, Fv(315); experiment: Hydrolysis of DNP coumarin esters 1-3 by Fv; assay type: biochemical, murine; settings: pH 6.8
Experimental: as §1, §2

[10] = tested on: monoclonal antibody (IgG) generated against hapten 2 (benzylamine 2); experiment: Antibody-catalyzed elimination of HF from β-fluoroketone; assay type: biochemical, Balb/c mice
Experimental: Solutions of substrate 1 were incubated with 2 μM Ig at 37° C. in 10 mM Bis-tris-HCl, 100 mM NaCl pH 6.0, at substrate concentration between 50 and 500 μM. Protein molarity was determined by absorbance at 280 nm using ε^0.1% =1.37 and a molecular weight of 150 kD for IgG. Elimination was followed spectrophotometrically. […] One of these antibodies was characterized further. […] The kinetics of the reaction are consistent with the simple Michaelis-Menten rate expression: [drawing 3] These values afford a kcat /kuncat of 1480 at pH 6.0.
Values of Ki were determined at 10 mM Bis-tris-HCl, 100 mM NaCl, pH 6.0 (37° C.). Substrate concentrations were 200 and 500 μM, Ig concentration was 2 μM, hapten concentration was […] to 1 μM.
The pH dependence of kcat was also determined under the same reaction conditions. Values of kcat are as follows: kcat =0.083 min^-1 at pH 5.5, kcat =0.11 at pH 5.75, kcat =0.188 at pH 6.0, kcat =0.3 at pH 6.5 and kcat =0.43 at pH 7.5. A plot of kcat vs. kcat [H^+ ] gives a pKa of 6.1 for the active site base. It is very likely that this corresponds to a high pKa carboxylate based on the strategy for generating the antibody. Chemical modification experiments with diazoacetamide support this hypothesis.

[11] = substrate: O=C(CCCCNc1ccc([N+](=O)[O-])cc1[N+](=O)[O-])Oc1ccc2ccc(=O)oc2c1; experiment: Hydrolysis of DNP coumarin esters 1-3 by Fv; assay type: biochemical, murine; settings: other: pH 6.8, 25° C.
Experimental: as §1, §2

[12] = substrate: O=C(CCNc1ccc([N+](=O)[O-])cc1[N+](=O)[O-])Oc1ccc2ccc(=O)oc2c1; experiment: Hydrolysis of DNP coumarin esters 1-3 by Fv; assay type: biochemical, murine; settings: other: pH 6.8, 25° C.
Experimental: as §1, §2

Molecule: CC(=O)Oc1ccc([N+](=O)[O-])cc1[N+](=O)[O-] [DNP-acetate]
- binding of substrate (fluorescence quenching) [1]: did not bind the substrate with appreciable affinity

Molecule: O=C(CCNc1ccc([N+](=O)[O-])cc1[N+](=O)[O-])Oc1ccc2ccc(=O)oc2c1 [compound 3]
- kcat (Table 2, Fv(Y34HL)) [2]: < 0.005 min

Molecule: C[C@]12C(=O)NC(=O)N(CC(=O)O)[C@H]1[C@H]1N(CC(=O)O)C(=O)NC(=O)[C@]12C [dimer 1, carboxymethylthymine-(cis,syn)cyclobutane dimer]
- kcat /Km ([3]; 300 nm irradiation, pH 7.5): 180000 M⁻¹ min⁻¹
- Km ([3]; 300 nm irradiation, pH 7.5, 18°-20° C.): 6.5 µM
- kcat ([3]; 300 nm, incident flux 1.26×10^-7 einsteins min^-1, pH 7.5, 18°-20° C.): 1.2 min⁻¹

Molecule: O=C(O)CNc1ccc([N+](=O)[O-])cc1[N+](=O)[O-] [DNP-glycine, N-DNP-glycine]
- Kd [4]: 5 µM
- Ki [5]: 8 µM

Molecule: N[C@@H](CCCCNc1ccc([N+](=O)[O-])cc1[N+](=O)[O-])C(=O)O [DNP-L-lysine, ε-2,4-DNP-(L)-lysine]
- Ki [2]: 3.8 ± 1.5 µM
- Kd [6]: 270 ± 30 nM
- Kd [7]: 1400 ± 300 nM
- Kd [8]: 270 ± 30 nM

Molecule: O=C(CCCCCNc1ccc([N+](=O)[O-])cc1[N+](=O)[O-])Oc1ccc2ccc(=O)oc2c1 [compound 2]
- kcat (Table 2, Fv(315)) [9]: 0.005 min
- kcat (Table 2, Fv(Y34HL)) [2]: 0.015 min

Molecule: CC(=O)CC(F)c1ccc([N+](=O)[O-])cc1 (racemic) [substrate 1, (R,S) 4-Fluoro-4-p-nitro phenylbutan-2-one]
- kcat ([10]; pH 5.5): 0.083 min⁻¹
- kcat ([10]; pH 5.75): 0.11 min⁻¹
- Km ([10]; pH 6.0, 37° C.): 182 µM
- kcat ([10]; pH 6.0, 37° C.): 0.188 min⁻¹
- kcat ([10]; pH 6.5): 0.3 min⁻¹
- kcat ([10]; pH 7.5): 0.43 min⁻¹

B1: MOPC315 Fv variant Fv(Y34HL), Tyr 34L to His (Mus musculus; Y53H) (protein)
chain 1: QAVVTQESALTTSPGGTVILTCRSSTGAVTTSNHANWIQEKPDHLFTGLIGGTSNRAPGVPVRFSGSLIGDKAALTITGAQTEDDAMYFCALWFRNHFVFGGGTKVTVLGQPKST
chain 2: DVQLQESGPGLVKPSQSLSLTCSVTGYSITSGYFWNWIRQFPGNKLEWLGFIKYDGSNGYNPSLKNRVSITRDTSENQFFLKLNSVTTEDTATYYCAGDNDHLYYFDYWGQGTTLTVSS
notes: Antibody-derived VH was prepared by denaturing ion exchange chromatography of authentic MOPC315 Fv, obtained from pepsin digestion of purified IgA; lambda cII fusion with Factor Xa site (IleGluGlyArg) (N, cleaved yes); made in house; host or cells: VL: E. coli MZ1 (cII fusion, inclusion bodies); VH: pepsin-cleaved MOPC315 IgA from mouse ascites
- Km [11]: 2.2 ± 0.2 µM
- kcat [11]: 0.18 ± 0.03 min⁻¹
- kcat/Km [11]: 8.2×10^4 m^-1 min^-1
- kcat [12]: 0.005 min⁻¹
